Measurements published in patent US20160045505A1, “COMPOUNDS AND COMPOSITIONS FOR THE TREATMENT OF PARASITIC DISEASES” (NOVARTIS AG, priority 2013, published 2016).
Where two headings read alike, the source gives them in different places.

Legend:
[1] = system: Leishmania donovani axenic amastigote parasites; test: Leishmania donovani axenic amastigote proliferation assay (Cell TiterGlo luminescence, 2 day incubation); type: cell-based; conditions: Leishmania donovani, read-out: L. donovani amastigotes EC50
[2] = system: L. donovani HU3 strain in mouse peritoneal macrophages; test: Assay for proliferation of Leishmania parasites in infected mouse peritoneal macrophages (SybrGreen staining, high-content imaging, 5 days); type: cell-based, Leishmania donovani; conditions: Leishmania donovani, Peritoneal macrophage, L. donovani in mouse peritoneal macrophages, read-out: L. donovani Macrophage EC50
[3] = system: Trypanosoma brucei Lister 427 strain, bloodstream form; test: Assay for proliferation of kinetoplastid parasite Trypanosoma brucei (Cell Titer Glo, 48 hours); type: cell-based; conditions: Trypanosoma brucei, T. brucei Lister 427 bloodstream form, read-out: T. brucei EC50
Procedure, shortened: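 Bloodstream-form T. brucei Lister 427 in HMI-9 medium was exposed to compound (DMSO vehicle) for 48 hours at 37° C, 5% CO2. Parasite growth was read as ATP by CellTiter-Glo luminescence, with EC50 calculated from percent inhibition.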

[4] = system: Trypanosoma cruzi amastigotes (Tulahuen strain expressing Lac-Z) cultured in 3T3 fibroblast cells; test: microbe, parasite or virus in culture; type: cell-based; conditions: Trypanosoma cruzi, TULAHUEN, Fibroblast, T. cruzi amastigotes in 3T3 fibroblast cells, read-out: T cruzi EC50
[5] = axenic amastigotes, inhibition of proliferation

Row | SMILES | EC50 ([1]; L. donovani axenic amastigotes) [nM] | EC50 [2] [nM] | EC50 [3] [nM] | EC50 [4] [nM] | EC50 [1, 5] [nM] | EC50 ([2]; inhibition of proliferation) [nM] | EC50 ([3]; inhibition of proliferation) [nM] | EC50 ([4]; inhibition of proliferation) [nM]
1 | CN(C)C(=O)Nc1ccc(F)c(-c2cn3cc(N(C)C)cnc3n2)c1 [Compound 583, 3-(3-(6-(dimethylamino)imidazo[1,2-a]pyrimidin-2-yl)-4-fluorophenyl)-1,1-dimethylurea] | 869 | 1790 | 139 | 377 |  |  |  | 
2 | CC(C)c1cnc2nc(-c3cc(NC(=O)N4CC[C@@H](F)C4)ccc3F)cn2c1 [Compound 418] | 29 | 71 | 8 | 15 |  |  |  | 
3 | CC(C)OC(=O)Nc1cnc2nc(-c3cc(NC4=NCC(C)(C)O4)ccc3F)cn2c1 [Compound 503] | > 25000 | 26600 | 36700 | > 20000 |  |  |  | 
4 | Cc1cc(C(=O)Nc2ccc(F)c(-c3cn4cc(NC(=O)OC(C)C)cnc4n3)c2)[nH]n1 [Compound 79] |  |  |  |  | 7280 | > 50000 | 7350 | > 20000
5 | Nc1cc(-c2cnc3nc(-c4cc(NC(=O)N5CCCC5)ccc4F)cn3c2)ccn1 [Compound 342] |  |  |  |  | 2140 | 14600 | 364 | 9360
6 | CCC(C)OC(=O)Nc1cnc2nc(-c3cc(NC(=O)c4oc(C)nc4C)ccc3F)cn2c1 (stereo not shown) [Compound 309] |  |  |  |  | 109 | 204 | 132 | 275
7 | Cc1nc(C)c(C(=O)Nc2ccc(F)c(-c3cn4cc(NC(=O)OCCCCl)cnc4n3)c2)o1 [Compound 519] | 244 | 1620 | 366 | 3260 |  |  |  | 
8 | CC(C)OC(=O)Nc1cnc2nc(-c3cc(NC(=O)c4nccn4C)ccc3F)cn2c1 [Compound 97] |  |  |  |  | 12000 | 18200 | 13200 | 10500
9 | Cc1nc(C(=O)Nc2ccc(Cl)c(-c3cn4cc(NC(=O)OC(C)C)cnc4n3)c2)no1 [Compound 528] | > 25000 | 8940 | 6960 | > 20000 |  |  |  | 
10 | Cc1nc(C)c(C(=O)Nc2ccc(F)c(-c3cn4cc(NC(=O)[C@@H]5CCCC[C@@H]5N)cnc4n3)c2)o1 [Compound 168] |  |  |  |  | 20300 | 24400 | 4370 | > 18400
11 | Cc1nc(C(=O)Nc2cnc3nc(-c4cc(NC(=O)c5oc(C)nc5C)ccc4F)cn3c2)no1 [Compound 183] |  |  |  |  | 3630 | 11500 | 2100 | > 20000
12 | CCCC(=O)OCN(C(=O)OC(C)C)c1cnc2nc(-c3cc(NC(=O)c4oc(C)nc4C)ccc3F)cn2c1 [Compound 556] | 63 | 99 | 70 | 313 |  |  |  | 
13 | O=C(Nc1cnc2nc(-c3cc(NC(=O)N4CCCC4)ccc3F)cn2c1)[C@H]1CCCO1 [Compound 126] |  |  |  |  | 434 | 4050 | 126 | 4860
14 | CCn1ccnc1C(=O)Nc1cnc2nc(-c3cc(NC(=O)c4oc(C)nc4C)ccc3F)cn2c1 [Compound 117] |  |  |  |  | 125 | > 50000 | 166 | > 20000
15 | Cc1cnc(F)c(-c2cnc3nc(-c4cc(NC(=O)c5oc(C)nc5C)ccc4F)cn3c2)c1 [Compound 439] | 108 | 754 | 121 | 89 |  |  |  | 
16 | CC(C)OC(=O)Nc1cnc2nc(-c3cc(NC(=O)c4ccco4)ccc3Cl)cn2c1 [Compound 244] |  |  |  |  | 152 | 345 | 65 | 55
17 | CC(C)OC(=O)Nc1cnc2nc(-c3cc(NC(=O)c4c[nH]cn4)ccc3F)cn2c1 [Compound 81] |  |  |  |  | > 25000 | > 50000 | > 50000 | > 20000

Row | SMILES | EC50 ([1]; L. donovani axenic amastigotes) [nM] | EC50 [2] [nM] | EC50 [3] [nM] | EC50 [4] [nM] | EC50 [1, 5] [nM] | EC50 ([2]; inhibition of proliferation) [nM] | EC50 ([3]; inhibition of proliferation) [nM] | EC50 ([4]; inhibition of proliferation) [nM]
18 | COC(=O)COc1cnc2nc(-c3cc(NC(=O)c4oc(C)nc4C)ccc3F)cn2c1 [Compound 609] | 835 | 5970 | 1050 | > 20000 |  |  |  | 
19 | Cc1nc(C)c(C(=O)Nc2ccc(F)c(-c3cn4cc(NC(=O)C5CCCCN5C)cnc4n3)c2)o1 (stereo not shown) [Compound 165] |  |  |  |  | > 25000 | > 50000 | 1450 | 5180
20 | Cc1nc(C)c(C(=O)Nc2ccc(F)c(-c3cn4cc(-c5ccc(CCN6CCOCC6)cc5)cnc4n3)c2)o1 [Compound 348] |  |  |  |  | 341 | 1030 | 165 | 41
21 | CC(C)CNc1cnc2nc(-c3cc(NC(=O)N4CCCC4)ccc3F)cn2c1 [Compound 472] | 210 | 737 | 58 | 297 |  |  |  | 
22 | O=C1CCC(C(=O)Nc2ccc(F)c(-c3cn4cc(C5CC5)cnc4n3)c2)C1 (stereo not shown) [Compound 599] | 2690 | 639 | 3300 | 3930 |  |  |  | 
23 | C=Cc1cnc2nc(-c3cc(NC(=O)c4oc(C)nc4C)ccc3F)cn2c1 [Compound 581, N-(4-fluoro-3-(6-vinylimidazo[1,2-a]pyrimidin-2-yl)phenyl)-2,4-dimethyloxazole-5-carboxamide] | 169 | 249 | 101 | 110 |  |  |  | 
24 | O=C(Nc1ccc(F)c(-c2cn3cc(-c4ccccc4)cnc3n2)c1)N1CC(F)(F)C1 [Compound 319] |  |  |  |  | 33 | 102 | 20 | 20
25 | CN1CCOC(C(=O)Nc2ccc(F)c(-c3cn4cc(C5CC5)cnc4n3)c2)C1 (stereo not shown) [Compound 601] | > 25000 | 4040 | > 50000 | > 20000 |  |  |  | 
26 | Cc1nc(C)c(C(=O)Nc2ccc(F)c(-c3cn4cc(NCc5ncc[nH]5)cnc4n3)c2)o1 [Compound 479] | > 22800 | > 50000 | 41900 | > 20000 |  |  |  | 
27 | CC(C)OC(=O)Nc1cnc2nc(-c3cc(NC(=O)N4C[C@@H]5C[C@H]4CO5)ccc3Cl)cn2c1 [Compound 258] |  |  |  |  | 20200 | > 42400 | 13100 | > 20000
28 | O=C(Nc1ccc(F)c(-c2cn3cc(Cl)cnc3n2)c1)N1CC(F)(F)C1 [Compound 235] |  |  |  |  | 215 | 821 | 165 | 433
29 | CN(C)C(=O)Nc1ccc(F)c(-c2cn3cc(-c4ccccc4)cnc3n2)c1 [Compound 323] |  |  |  |  | 97 | 278 | 47 | 46
30 | CC(C)OC(=O)Nc1cnc2nc(-c3cc(NC(=O)N4CCC[C@@H]4C(F)(F)F)ccc3Cl)cn2c1 [Compound 260] |  |  |  |  | > 25000 | 3830 | > 50000 | 4550
31 | Cc1ncc(C(=O)Nc2ccc(F)c(-c3cn4cc(C(F)F)cnc4n3)c2)o1 [Compound 209] |  |  |  |  | 87 | 317 | 169 | 130
32 | C=C(C)OC(=O)Nc1cnc2nc(-c3cc(NC(=O)c4oc(C)nc4C)ccc3F)cn2c1 [Compound 311] |  |  |  |  | 162 | 12000 | 1670 | 5580
33 | Cc1nc(C)c(C(=O)Nc2ccc(F)c(-c3cn4cc(-c5ccc(OCCN6CCOCC6)cc5)cnc4n3)c2)o1 [Compound 359] |  |  |  |  | 450 | 4860 | 1500 | 405
34 | CC1(C(=O)Nc2cnc3nc(-c4cc(NC(=O)N5CCCC5)ccc4F)cn3c2)CCCCO1 (stereo not shown) [Compound 136] |  |  |  |  | 392 | 1420 | 157 | > 20000
